# Test results published in ChEMBL document CHEMBL5154661, “Novel 2-phenyl-3-(Pyridin-2-yl) thiazolidin-4-one derivatives as potent inhibitors for proliferation of osteosarcoma cells in vitro and in vivo” (Eur J Med Chem, 2022).
# Experiments:
# HOS-TE85 [1] = assay: Antiproliferative activity against human MNNG/HOS cells assessed as cell growth inhibition measured after 72 hrs by CCK-8 assay; type: functional, cell-based; settings: HOS-TE85, 72 h
# SJSA-1 = assay: Antiproliferative activity against human SJSA-1 assessed as cell growth inhibition at 1 uM measured after 72 hrs by CCK-8 assay relative to control; type: functional
# MG-63 = assay: Antiproliferative activity against human MG-63 cells assessed as cell growth inhibition at 1 uM measured after 72 hrs by CCK-8 assay relative to control; type: functional
# HOS-TE85 [2] = assay: Antiproliferative activity against human MNNG/HOS cells assessed as cell growth inhibition at 1 uM measured after 72 hrs by CCK-8 assay relative to control; type: functional
# 143B = assay: Antiproliferative activity against human 143B cells assessed as cell growth inhibition at 1 uM measured after 72 hrs by CCK-8 assay relative to control; type: functional
# HOS = assay: Antiproliferative activity against human HOS cells assessed as cell growth inhibition at 1 uM measured after 72 hrs by CCK-8 assay relative to control; type: functional
# U2OS = assay: Antiproliferative activity against human U2OS cells assessed as cell growth inhibition at 1 uM measured after 72 hrs by CCK-8 assay relative to control; type: functional
# [3] = Microsomal stability in mouse liver microsomes assessed as intrinsic clearance at 0.1 uM incubated for 10 mins in presence of NADPH by LC-MS/MS analysis; type: ADME, Microsome
# [4] = Kinetic solubility of compound at pH 7.4 by turbidimetry method; type: physicochemical; settings: buffer, read-out: Kinetic_solubility
# [5] = Microsomal stability in rat liver microsomes assessed as intrinsic clearance at 0.1 uM incubated for 10 mins in presence of NADPH by LC-MS/MS analysis; type: ADME, Microsome
# [6] = Kinetic solubility of compound at pH 6.8 by turbidimetry method; type: physicochemical; settings: buffer, read-out: Kinetic_solubility
# [7] = Microsomal stability in human liver microsomes assessed as intrinsic clearance at 0.1 uM incubated for 10 mins in presence of NADPH by LC-MS/MS analysis; type: ADME, Microsome
smiles,measurement,setting,value
O=C(NCCc1ccccc1)c1cccc(C2SCC(=O)N2c2ccc(C3CC3)cc2)c1 (centres undefined),IC50,HOS-TE85 [1],> 1 µM
O=C(NCCCCn1cccn1)c1cccc(C2SCC(=O)N2c2ccncc2)c1 (centres undefined),IC50,HOS-TE85 [1],> 1 µM
COc1ccc(C)cc1N1C(=O)CSC1c1cccc(C(=O)NCCCCc2ccccc2)c1 (centres undefined),inhibition at 1 µM,SJSA-1,79%
same,inhibition at 1 µM,MG-63,92%
same,inhibition at 1 µM,HOS-TE85 [2],95%
same,IC50,HOS-TE85 [1],0.3 µM
same,inhibition at 1 µM,143B,29%
same,inhibition at 1 µM,HOS,42%
same,inhibition at 1 µM,U2OS,30%
COc1ccc(OC)c(N2C(=O)CSC2c2cccc(C(=O)NCCCCc3ccccc3)c2)c1 (centres undefined),inhibition at 1 µM,SJSA-1,48%
same,inhibition at 1 µM,MG-63,92%
same,inhibition at 1 µM,HOS-TE85 [2],20%
same,IC50,HOS-TE85 [1],> 1 µM
same,inhibition at 1 µM,143B,2%
same,inhibition at 1 µM,HOS,5%
same,inhibition at 1 µM,U2OS,1%
O=C(NCCCCc1ccccc1)c1cccc(C2SCC(=O)N2c2cccc(-c3c[nH]nn3)c2)c1 (centres undefined),intrinsic clearance (CLint),[3],951 mL/min/g
same,solubility kinetic,[4],20 µM
same,IC50,HOS-TE85 [1],0.11 µM
same,intrinsic clearance (CLint),[5],742 mL/min/g
same,solubility kinetic,[6],20 µM
same,intrinsic clearance (CLint),[7],261 mL/min/g
CC1SC(c2cccc(C(=O)NCCCCc3ccccc3)c2)N(c2ccc(C3CC3)cc2)C1=O (centres undefined),intrinsic clearance (CLint),[3],3212 mL/min/g
same,solubility kinetic,[4],2 µM
same,IC50,HOS-TE85 [1],0.191 µM
same,intrinsic clearance (CLint),[5],3129 mL/min/g
same,solubility kinetic,[6],10 µM
same,intrinsic clearance (CLint),[7],2013 mL/min/g
CC1SC(c2cccc(C(=O)NCCCCc3ccccc3)c2)N(c2cccc(C3CC3)c2)C1=O (centres undefined),IC50,HOS-TE85 [1],0.295 µM
COc1ccc(F)cc1N1C(=O)CSC1c1cccc(C(=O)NCCCCn2cccn2)c1 (centres undefined),intrinsic clearance (CLint),[3],1312 mL/min/g
same,solubility kinetic,[4],50 µM
same,IC50,HOS-TE85 [1],0.0973 µM
same,intrinsic clearance (CLint),[5],1472 mL/min/g
same,solubility kinetic,[6],50 µM
same,intrinsic clearance (CLint),[7],421 mL/min/g
O=C(NCCCCn1cccn1)c1cccc(C2SCC(=O)N2c2cc(Br)ccn2)c1 (centres undefined),IC50,HOS-TE85 [1],0.105 µM
COc1cccc(OC)c1N1C(=O)CSC1c1cccc(C(=O)NCCCCc2ccccc2)c1 (centres undefined),inhibition at 1 µM,SJSA-1,72%
same,inhibition at 1 µM,MG-63,80%
same,inhibition at 1 µM,HOS-TE85 [2],95%
same,IC50,HOS-TE85 [1],> 1 µM
same,inhibition at 1 µM,143B,31%
same,inhibition at 1 µM,HOS,80%
same,inhibition at 1 µM,U2OS,41%
O=C(NCCCCn1cccn1)c1cccc(C2SCC(=O)N2c2cc(Cl)ccn2)c1 (centres undefined),IC50,HOS-TE85 [1],0.0364 µM
COc1ccccc1N1C(=O)CSC1c1cccc(C(=O)NCCCCN2CCN(C(=O)OC(C)(C)C)CC2)c1 (centres undefined),IC50,HOS-TE85 [1],> 1 µM
CC1SC(c2cccc(C(=O)NCCCCc3ccc(Cl)cc3)c2)N(c2ccc(C3CC3)cc2)C1=O (centres undefined),IC50,HOS-TE85 [1],> 1 µM
CCOC(=O)c1sc(N2C(=O)CSC2c2cccc(C(=O)NCCCCn3cccn3)c2)nc1C (centres undefined),IC50,HOS-TE85 [1],0.429 µM
O=C(NCCCc1ccccc1)c1cccc(C2SCC(=O)N2c2ccc(C3CC3)cc2)c1 (centres undefined),IC50,HOS-TE85 [1],> 1 µM
O=C(NCCCCc1ccccc1)c1cccc(C2SCC(=O)N2c2ccccn2)c1 (centres undefined),intrinsic clearance (CLint),[3],644 mL/min/g
same,solubility kinetic,[4],20 µM
same,IC50,HOS-TE85 [1],0.0197 µM
same,intrinsic clearance (CLint),[5],1482 mL/min/g
same,solubility kinetic,[6],20 µM
same,intrinsic clearance (CLint),[7],412 mL/min/g
CCN(CC)c1ccc(N2C(=O)CSC2c2cccc(C(=O)NCCCCc3ccccc3)c2)cc1 (centres undefined),IC50,HOS-TE85 [1],> 1 µM
C#Cc1cccc(N2C(=O)CSC2c2cccc(C(=O)NCCCCc3ccccc3)c2)c1 (centres undefined),intrinsic clearance (CLint),[3],1903 mL/min/g
same,solubility kinetic,[4],10 µM
same,IC50,HOS-TE85 [1],0.149 µM
same,intrinsic clearance (CLint),[5],1818 mL/min/g
same,solubility kinetic,[6],10 µM
same,intrinsic clearance (CLint),[7],751 mL/min/g
COc1ccccc1N1C(=O)CSC1c1cccc(C(=O)NCCCCN2C(=O)C=CC2=O)c1 (centres undefined),IC50,HOS-TE85 [1],> 1 µM
COc1ccccc1N1C(=O)CSC1c1cccc(C(=O)NCCCCc2cccs2)c1 (centres undefined),IC50,HOS-TE85 [1],0.046 µM
O=C(NCCCCc1ccccc1)c1cccc(C2SCC(=O)N2c2ccc(-c3ccccc3)cc2)c1 (centres undefined),IC50,HOS-TE85 [1],> 1 µM
COc1ccccc1N1C(=O)CSC1c1cccc(C(=O)NCCCCn2cccn2)c1 (centres undefined),IC50,HOS-TE85 [1],0.0917 µM
CCC1(c2ccc(N3C(=O)CSC3c3cccc(C(=O)NCCCCn4cccn4)c3)cc2)CCC(=O)NC1=O (centres undefined),IC50,HOS-TE85 [1],> 1 µM
COc1ccccc1N1C(=O)CSC1c1cccc(C(=O)NCCCCn2cncn2)c1 (centres undefined),IC50,HOS-TE85 [1],> 1 µM
CCN1C(=O)CSC1c1cccc(C(=O)NCCCCc2ccccc2)c1 (centres undefined),inhibition at 1 µM,SJSA-1,3%
same,inhibition at 1 µM,MG-63,0%
same,inhibition at 1 µM,HOS-TE85 [2],0%
same,IC50,HOS-TE85 [1],> 1 µM
same,inhibition at 1 µM,143B,40%
same,inhibition at 1 µM,HOS,6%
same,inhibition at 1 µM,U2OS,13%
